Non-standard residues stand in square brackets, D forms with d. Residues, ends and D or L forms follow the SMILES beside them. pGlu = O=C1CC[C@@H](C(=O)O)N1
Key:
[1] = test system: advanced pancreatic cancer; details: cited from earlier work
[2] = test system: MIAPaCa-2, BxPC-3 and PANC-1 pancreatic cancer cells; test: Modified MTT cytotoxicity assay; type: cell-based, human
Method: Pancreatic cell lines MIAPaCa-2, BxPC-3, and PANC-1 were obtained from the American Type Culture Collection. All cell lines were cultured in DMEM supplemented with 10% FBS, 100 units/mL penicillin, and 100 μg/mL streptomycin. The presence and location of LHRH-receptors in these pancreatic cancer cell lines was determined by immunochemical methods.
The cytotoxicity of the peptides was determined with a modified MTT (3-(4, 5-dimethylthiazol-2-yl)-2, 5-diphenyltetrazolium bromide) assay. Briefly, MIAPaCa-2, BxPC-3 and PANG-1 cells (2000/well) were separately incubated in 96-well plates in triplicate in a cell growth medium with different concentrations of LHRH, LHRH-Curcumin, Curcumin, and LHRH-Phor21. Three wells served as controls, each receiving an equivalent volume of medium. After 24 hours, an MTT solution (5 mg/ml in PBS) was added to each well and incubated for 2 hours at 37° C., followed by extraction with buffer (20% SDS and 50% dimethylformamide). The cells were incubated overnight at 37° C. Optical absorbance of the cell suspension was then measured at 590 nm using an MRX Revelation 96-well multiscanner (Dynex Technologies, Chantilly, Va.). From these measurements the IC50 doses of the peptides were calculated. […] Values given are mean±SD of triplicate cultures.

[3] = test system: luciferase-transfected MIAPaCa-2 xenograft tumors; test: Human pancreatic cancer xenograft in female athymic nude mice; type: in vivo
Excerpt: MIAPaCa-2, a cell line expressing the LHRH receptor, was then used for in vivo experiments. We stably transfected MIAPaCa-2 cells with a gene encoding luciferase. We used the transfected cells to produce a pancreatic cancer xenograft mouse model.
Forty-eight female nude mice (athymic Balb/c, 4-5 weeks old) were obtained from a commercial vendor (Charles River Laboratories, Wilmington, Mass.), and caged individually in a room maintained at constant temperature and humidity under a 12-h light and darkness cycle, and fed a regular, autoclaved chow diet with water ad libitum. […]
After the tumors were established (100-250 mm^3), the 48 mice were randomized into six different treatment groups (n=8 mice per group): (1) LHRH alone, (2) LHRH-Curcumin, (3) LHRH-Phor21, (4) unconjugated LHRH and Phor21, (5) vehicle control, and (6) a control group of tumor-bearing mice that were necropsied before treatment (baseline controls). […] Tumor volumes and mice body weights were measured twice weekly, and mice were necropsied one week after the last treatment. At necropsy, tumors, ovaries, kidneys, pancreases, lungs, spleen, several bones, and liver were removed and weighed, and metastastic cell numbers were measured by luciferase assay. The tumor volumes and weights were analyzed by one-way ANOVA, and compared among groups using an unpaired Student's t-test. […]

caspase-3/7 = test: Apo-ONE homogenous caspase-3/7 assay in MIAPaCa-2 cells; type: cell-based, human; details: 5 μM, 24 hours, p<0.05, FIG. 6
Method: We also directly measured the effect of LHRH-curcumin on caspase 3 enzyme activity with the Apo-ONE homogenous caspase-3/7 assay kit (Promega, Madison, Wis.). This assay uses a profluorescent substrate with an optimized, bifunctional cell lysis/activity buffer. MIAPaCa-2 cells were treated in triplicate (10,000 cells per well) with the free peptide LHRH, or with the LHRH-Curcumin conjugate, in each case at a 5 μM concentration, and incubated for 24 hours. Following the 24 hour incubation, the Apo-ONE homogenous caspase-3/7 assay was performed according to the manufacturer's protocol. The buffer and 100 μL Apo-ONE caspase-3/7 assay reagent were mixed and added to the samples. Cells were then incubated for an additional hour prior to fluorescence measurements. Upon sequential cleavage and removal of the Asp-Glu-Val-Asp peptide (SEQ ID NO. 10) by caspase-3/7 activity, the rhodamine 110 leaving group became intensely fluorescent with excitation at 499 nm and an emission maximum at 512 nm. The excitation/emission was recorded on a FlexStation (Molecular Devices, Sunnyvale, Calif.) with softMax Pro version 4.8 software. The experiment was conducted in duplicate. Statistical significance was determined by a two-tailed Students t-test, using GraphPad Prism software version 5.0.

COc1cc(/C=C/C(=O)CC(=O)/C=C/c2ccc(O)c(OC)c2)ccc1O [Curcumin, diferuloylmethane]
bioavailability ([1]; oral administration): poor bioavailability | patients with clinical biological activity ([1]; oral, advanced pancreatic cancer): 2 of 21 | inhibition of proliferation of pancreatic cancer cells ([2]; 24 hours, MTT, FIGS. 2(A)-2(C)): inhibited the proliferation of pancreatic cancer cells

CC(C)C[C@H](NC(=O)CNC(=O)[C@H](Cc1ccc(O)cc1)NC(=O)[C@H](CO)NC(=O)[C@H](Cc1c[nH]c2ccccc12)NC(=O)[C@H](Cc1c[nH]cn1)NC(=O)[C@@H]1CCC(=O)N1)C(=O)N[C@@H](CCCNC(=N)N)C(=O)N1CCC[C@H]1C(=O)NCC(=O)N[C@@H](CCCCN)C(=O)N[C@@H](Cc1ccccc1)C(=O)N[C@@H](C)C(=O)N[C@@H](CCCCN)C(=O)N[C@@H](Cc1ccccc1)C(=O)N[C@@H](C)C(=O)N[C@@H](CCCCN)C(=O)N[C@@H](CCCCN)C(=O)N[C@@H](Cc1ccccc1)C(=O)N[C@@H](C)C(=O)N[C@@H](CCCCN)C(=O)N[C@@H](Cc1ccccc1)C(=O)N[C@@H](C)C(=O)N[C@@H](CCCCN)C(=O)N[C@@H](CCCCN)C(=O)N[C@@H](Cc1ccccc1)C(=O)N[C@@H](C)C(=O)N[C@@H](CCCCN)C(=O)N[C@@H](Cc1ccccc1)C(=O)N[C@@H](C)C(=O)N[C@@H](CCCCN)C(=O)O [LHRH-Phor21] ([pGlu]HWSYGLRPGKFAKFAKKFAKFAKKFAKFAK-OH; C-terminus assumed)
mice body weights as indicators of potential toxicity ([3]; FIG. 5(D)): not significantly different from control | side effects ([3]; tail vein injections): some inflammation was seen in the mice tails at the site of injections | relative cytotoxicity [2]: greater cytotoxicity than that of LHRH-Curcumin

pGlu-His-Trp-Ser-Tyr-Gly-Leu-Arg-Pro-Gly [LHRH]
caspase-3/7 activity (caspase-3/7): significantly increased
